According to ChEMBL document CHEMBL1201862, “PubChem BioAssay data set” (2004):
Where a name gives a salt, the structure may show the parent alone.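 Cultured in 96-well plates, cells were exposed to test compound for 48 hours across five concentrations. The concentration for 50% growth inhibition is given as GI50.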 Calls of active or inactive are those of the source. No stated cut-off is given here; in the data, active = GI50 up to about 1.1 µM and inactive = higher.

Assays:
Assay in all cases: DTP human tumour cell line panel, 48 h
SK-MEL-2 = tested on: SK-MEL-2
CCRF-CEM = tested on: CCRF-CEM
OVCAR-4 = tested on: OVCAR-4
MCF7 = tested on: MCF7
K562 = tested on: K562
SK-OV-3 = tested on: SK-OV-3
HL-60 = tested on: HL-60
786-0 = tested on: 786-0
HCC 2998 = tested on: HCC 2998
UACC-62 = tested on: UACC-62
SK-MEL-28 = tested on: SK-MEL-28
RPMI-8226 = tested on: RPMI-8226
M14 = tested on: M14
LOX IMVI = tested on: LOX IMVI
OVCAR-3 = tested on: OVCAR-3
HOP-92 = tested on: HOP-92
HT-29 = tested on: HT-29
SF-295 = tested on: SF-295
HCT-15 = tested on: HCT-15
NCI-H226 = tested on: NCI-H226

Structure (SMILES)	GI50 (SK-MEL-2)	GI50 (CCRF-CEM)	GI50 (OVCAR-4)	GI50 (MCF7)	GI50 (K562)	GI50 (SK-OV-3)	GI50 (HL-60)	GI50 (786-0)	GI50 (HCC 2998)	GI50 (UACC-62)	GI50 (SK-MEL-28)	GI50 (RPMI-8226)	GI50 (M14)	GI50 (LOX IMVI)	GI50 (OVCAR-3)	GI50 (HOP-92)	GI50 (HT-29)	GI50 (SF-295)	GI50 (HCT-15)	GI50 (NCI-H226)
CCCCOC(=O)CC(CC(=O)OCCCC)(OC(C)=O)C(=O)OCCCC [ACETYLTRIBUTYL CITRATE]	> 200 µM (inactive)	76.9 µM (inactive)	> 81.5 µM (inactive)	39.1 µM (inactive)	29.6 µM (inactive)	> 200 µM (inactive)	27.8 µM (inactive)	> 200 µM (inactive)	> 200 µM (inactive)	117 µM (inactive)	> 157 µM (inactive)	16 µM (inactive)	> 200 µM (inactive)	150 µM (inactive)	> 200 µM (inactive)	72.4 µM (inactive)	60.8 µM (inactive)	91.2 µM (inactive)	> 177 µM	24.6 µM (inactive)
CCC1(O)CC(O)c2c(O)c3c(c(O)c2C1C(=O)OC)C(=O)c1cccc(O)c1C3=O (stereo not given)	3.12 µM (inactive)	1.53 µM (inactive)	2.96 µM (inactive)	3.28 µM (inactive)	1.96 µM (inactive)	4.49 µM (inactive)	0.794 µM (active)	2.75 µM (inactive)	4.43 µM (inactive)	3 µM (inactive)	11.4 µM (inactive)	2.21 µM (inactive)	2.87 µM (inactive)	2.37 µM (inactive)	2.05 µM (inactive)	9.31 µM (inactive)	3.27 µM (inactive)	2.66 µM (inactive)	1.54 µM	3.4 µM (inactive)
CC(C)=CCc1c(O)c(CC2=C(O)C(CC=C(C)C)(C(=O)C(C)C)C(O)=C(C)C2=O)c(O)c(C(=O)C(C)C)c1O (stereo not given)	11.5 µM (inactive)	5.78 µM (inactive)	15.8 µM (inactive)	11.7 µM (inactive)	8.61 µM (inactive)	18.8 µM (inactive)	39 µM (inactive)	10.7 µM (inactive)	7.8 µM (inactive)	7.98 µM (inactive)	13.2 µM (inactive)	6.46 µM (inactive)	11.4 µM (inactive)	9.48 µM (inactive)	12.2 µM (inactive)	5.07 µM (inactive)	3.88 µM (inactive)	9.33 µM (inactive)	11.7 µM	7.93 µM (inactive)
CCOC(=O)/C(SC#N)=C(/N)N1CCCC1	> 100 µM (inactive)	> 100 µM (inactive)	> 100 µM (inactive)	> 100 µM (inactive)	> 100 µM (inactive)	> 100 µM (inactive)	> 100 µM (inactive)	> 100 µM (inactive)	> 100 µM (inactive)	> 100 µM (inactive)	> 100 µM (inactive)	> 100 µM (inactive)	> 100 µM (inactive)	> 100 µM (inactive)	> 100 µM (inactive)	> 100 µM (inactive)	> 100 µM (inactive)	> 100 µM (inactive)	> 100 µM	> 100 µM (inactive)
Cn1c(=O)c2nc3c(=O)n(C)c(=O)n(CC(N)=O)c3nc2n(C)c1=O	> 100 µM (inactive)	> 100 µM (inactive)	> 100 µM (inactive)	> 100 µM (inactive)	> 100 µM (inactive)	> 100 µM (inactive)	> 100 µM (inactive)	> 100 µM (inactive)	> 100 µM (inactive)	> 100 µM (inactive)	> 100 µM (inactive)	> 100 µM (inactive)	> 100 µM (inactive)	> 100 µM (inactive)	> 100 µM (inactive)	> 100 µM (inactive)	> 100 µM (inactive)	> 100 µM (inactive)	> 100 µM	> 100 µM (inactive)
C=CC1=C(C)c2cc3[nH]c(c4c5nc(cc6[nH]c(cc1n2)c(C)c6CC)C=C5C(=O)C4C(=O)OC)C(CCC(=O)OC/C=C(\C)CCCC(C)CCCC(C)CCCC(C)C)C3C.C=CC1=C(C)c2cc3[nH]c(c4c5nc(cc6[nH]c(cc1n2)c(C=O)c6CC)C=C5C(=O)C4C(=O)OC)C(CCC(=O)OC/C=C(\C)CCCC(C)CCCC(C)CCCC(C)C)C3C (stereo not given)	> 100 µM (inactive)	10 µM (inactive)	> 100 µM (inactive)	> 100 µM (inactive)	> 100 µM (inactive)	> 100 µM (inactive)	10 µM (inactive)	> 100 µM (inactive)	> 100 µM (inactive)	> 100 µM (inactive)	> 100 µM (inactive)	> 100 µM (inactive)	> 100 µM (inactive)	> 100 µM (inactive)	> 100 µM (inactive)	> 100 µM (inactive)	> 100 µM (inactive)	> 100 µM (inactive)	> 100 µM	> 100 µM (inactive)
